Data set [1] is described as follows: Cytotoxicity against human rhabdomyosarcoma cells assessed as decrease in cell viability after 24 hrs by WST-1 assay. It counts as toxicity, cell-based. (Formazan colour is commonly taken as a measure of viable cells.)
Data set [2] is described as follows: Inhibition of EV71 protease 3C expressed in Escherichia coli BL21 using substrate NMA-IEALFQGPPK(DNP)FR preincubated for 30 mins followed by substrate addition measured after 2 hrs. More on the design: species or system Enterovirus A71.
In a further data set the test system is Enterovirus A71. Put plainly: Antiviral activity against EV71 FY pseudotype virus infected in human rhabdomyosarcoma cells after 24 hrs by bright-glo luciferase reporter gene assay. It counts as functional. To be noted: Enterovirus A. (A reporter such as luciferase makes a cellular process visible.)

Some results are limits rather than exact numbers.

For orientation: CC50 means the concentration at which the toxic effect on the cells reaches its halfway point. As a reminder, the IC50 is the midpoint of a concentration-inhibition curve. For orientation: Ki means the equilibrium dissociation constant of an inhibitor or competing ligand from its target. Higher therefore signals a looser hold on the target. A word on the EC50: it is the concentration giving half of the maximal effect. High values mean a less potent agent, low ones a more potent agent. With `CCCC(=O)N[C@@H](Cc1ccccc1)C(=O)N[C@H](C=O)C[C@@H]1CCCNC1=O`, the CC50 at 24 h in data set [1] was more than 100000 nM. In data set [2], this compound yielded an IC50 of 7680 nM and a Ki of 5250 nM. Besides, the response in the data set on Enterovirus A71 was half-maximal at 4060 nM (EC50).
For `O=C[C@H](C[C@@H]1CCCNC1=O)NC(=O)[C@H](Cc1ccccc1)NC(=O)c1cccnc1` the same measures were more than 100000 nM, 440 nM, 300 nM and 3550 nM.
For `O=C[C@H](C[C@@H]1CCCNC1=O)NC(=O)[C@H](Cc1ccccc1)NC(=O)c1ccncc1` the same measures were more than 100000 nM, 1420 nM, 970 nM and 8600 nM.
Consider `O=C[C@H](C[C@@H]1CCCNC1=O)NC(=O)[C@H](Cc1ccccc1)NC(=O)CCc1ccccc1`, for which the CC50 at 24 h in data set [1] is more than 100000 nM. In data set [2], this compound yielded an IC50 of 750 nM and an inhibition constant Ki of 510 nM. Further, in the data set with Enterovirus A71, a half-maximal response (EC50) required 570 nM.
The like results for `CC(C)[C@H](NC(=O)/C=C/c1ccccc1)C(=O)N[C@H](C=O)C[C@@H]1CCCNC1=O` were, in that order, more than 100000 nM, 5680 nM, 3880 nM and 16700 nM.
For `CC(C)C[C@H](NC(=O)/C=C/c1ccccc1)C(=O)N[C@H](C=O)C[C@@H]1CCCNC1=O` the same measures were more than 100000 nM, 2780 nM, 1900 nM and 2360 nM.
The like results for `O=C[C@H](C[C@@H]1CCCNC1=O)NC(=O)[C@H](Cc1ccccc1)NC(=O)Cc1ccccc1` were, in that order, more than 100000 nM, 700 nM, 480 nM and 540 nM.
In the case of `CCCCCC(=O)N[C@@H](Cc1ccccc1)C(=O)N[C@H](C=O)C[C@@H]1CCCNC1=O`, the CC50 at 24 h in data set [1] was more than 100000 nM. In data set [2], this compound had an IC50 of 13600 nM and a Ki of 9270 nM. Further, the EC50 with Enterovirus A71 was found to be 6450 nM.
The like results for `O=C[C@H](C[C@@H]1CCCNC1=O)NC(=O)[C@H](Cc1ccccc1)NC(=O)c1ccc(-c2ccccc2)cc1` were, in that order, more than 100000 nM, 1930 nM, 1320 nM and 910 nM.
As to `O=C[C@H](C[C@@H]1CCCNC1=O)NC(=O)[C@H](Cc1ccccc1)NC(=O)/C=C/c1ccccc1`, the CC50 at 24 h in data set [1] is more than 100000 nM. In addition, in data set [2], the IC50 is 540 nM and the Ki came out at 370 nM.
As to `Cc1cc(C(=O)N[C@@H](Cc2ccccc2)C(=O)N[C@H](C=O)C[C@@H]2CCCNC2=O)no1`, the CC50 at 24 h in data set [1] is more than 100000 nM. In data set [2], this compound came in with an IC50 of 220 nM and a Ki of 220 nM. Also, in the data set on Enterovirus A71, the EC50 came to 180 nM.
As for `Cc1cc(C(=O)N[C@@H](Cc2ccc(F)cc2)C(=O)N[C@H](C=O)C[C@@H]2CCCNC2=O)no1`, in data set [1], the CC50 at 24 h was more than 100000 nM. In addition, in data set [2], the IC50 turned out to be 100 nM and the Ki turned out to be 70 nM.
On to `O=C[C@H](C[C@@H]1CCCNC1=O)NC(=O)[C@H](Cc1ccc(F)cc1)NC(=O)/C=C/c1ccc(F)cc1`, for which, in data set [1], the CC50 at 24 h is more than 100000 nM. Besides, in data set [2], the IC50 came to 470 nM and the Ki stood at 320 nM. Besides, the EC50 with Enterovirus A71 amounted to 260 nM.
The like results for `O=C[C@H](C[C@@H]1CCCNC1=O)NC(=O)[C@H](Cc1ccccc1)NC(=O)c1cccs1` were, in that order, more than 100000 nM, 420 nM, 290 nM and 210 nM.
In the case of `O=C[C@H](C[C@@H]1CCCNC1=O)NC(=O)[C@H](Cc1ccccc1)NC(=O)/C=C/c1ccc(F)cc1`, the CC50 at 24 h in data set [1] was more than 100000 nM. Besides, in data set [2], the midpoint of inhibition, the IC50, lay at 590 nM and the Ki was 400 nM. Moreover, in the data set on Enterovirus A71, the EC50 came out at 320 nM.
For `COc1ccc(/C=C/C(=O)N[C@@H](Cc2ccccc2)C(=O)N[C@H](C=O)C[C@@H]2CCCNC2=O)cc1` the same measures were more than 100000 nM, 490 nM, 330 nM and 230 nM.
For `O=C[C@H](C[C@@H]1CCCNC1=O)NC(=O)[C@H](Cc1ccc(F)cc1)NC(=O)/C=C/c1ccccc1` the same measures were more than 100000 nM, 440 nM, 300 nM and 200 nM.
The like results for `O=C[C@H](C[C@@H]1CCCNC1=O)NC(=O)[C@H](Cc1ccccc1)NC(=O)c1ccccc1` were, in that order, more than 100000 nM, 550 nM, 380 nM and 380 nM.
Take `COc1ccc(/C=C/C(=O)N[C@@H](Cc2ccc(F)cc2)C(=O)N[C@H](C=O)C[C@@H]2CCCNC2=O)cc1`: the CC50 at 24 h in data set [1] is more than 100000 nM. In data set [2], this compound registered an IC50 of 410 nM and a Ki of 280 nM. Also, in the data set on Enterovirus A71, the EC50 was found to be 180 nM.
The like results for `COc1cc(/C=C/C(=O)N[C@@H](Cc2ccccc2)C(=O)N[C@H](C=O)C[C@@H]2CCCNC2=O)cc(OC)c1OC` were, in that order, more than 100000 nM, 7270 nM, 4970 nM and 6100 nM.
The like results for `O=C[C@H](C[C@@H]1CCCNC1=O)NC(=O)[C@H](Cc1ccccc1)NC(=O)c1ccco1` were, in that order, more than 100000 nM, 1100 nM, 750 nM and 850 nM.
For `O=C[C@H](C[C@@H]1CCCNC1=O)NC(=O)[C@H](CC1CCCCC1)NC(=O)/C=C/c1ccccc1` the same measures were more than 100000 nM, 1190 nM, 810 nM and 1040 nM.
Consider `O=C[C@H](C[C@@H]1CCCNC1=O)NC(=O)[C@H](Cc1ccc(F)cc1)NC(=O)c1cccs1`, for which the CC50 at 24 h in data set [1] was more than 100000 nM. Besides, in data set [2], the IC50 is 290 nM and the affinity corresponds to a Ki of 200 nM. In the data set on Enterovirus A71, the EC50 was 160 nM.
Regarding `COc1ccc(/C=C/C(=O)N[C@@H](Cc2ccccc2)C(=O)N[C@H](C=O)C[C@@H]2CCCNC2=O)cc1OC`, the CC50 at 24 h in data set [1] was more than 100000 nM. Moreover, in data set [2], the IC50 was 1580 nM and the Ki was determined as 1080 nM. In addition, the EC50 in the data set on Enterovirus A71 is 1380 nM.

For the origin of these results see ChEMBL document CHEMBL3875160, “Structure-activity relationship study of peptidomimetic aldehydes as enterovirus 71 3C protease inhibitors” (Eur J Med Chem, 2016).
